Results on seven molecules are retold here after ChEMBL document CHEMBL1201862, “PubChem BioAssay data set” (2004).

Experiment in all cases: inhibition of tumour cell growth, NCI panel, 48 h
The subject of assay [1] is MDA-MB-435.
The subject of assay [2] is HCC 2998.
Assay [3] has as its system T47D.
Assay [4] relates to MOLT-4.
For assay [5], the system named is PC-3.
The test system of assay [6] is Malme-3M.
Assay [7] has as its system K562.
The test system of assay [8] is HOP-62.
For assay [9], the system named is SNB-75.
Assay [10] has as its system SF-539.
Assay [11] concerns COLO 205.
Assay [12] deals with SK-MEL-5.
Assay [13] relates to OVCAR-4.
Assay [14] has as its system SR.
The subject of assay [15] is SK-MEL-28.
Assay [16] relates to MDA-N.
In assay [17] the test system is UACC-62.
The subject of assay [18] is UO-31.
Assay [19] relates to SF-295.
Assay [20] has as its system U-251.

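The compound was tested at five concentrations on cells cultured in 96-well plates, with a 48-hour exposure period. Abbreviation: GI50, concentration required for 50% inhibition of growth.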 The source made the active and inactive calls. Cut-off read from the data, not from the text of the source: active = GI50 up to about 1.1 µM and inactive = higher.

Turning to `Cc1cc2c(nn1)CCc1c-2no[n+]1[O-]`, the GI50 in assay [1], in assay [2], in [3], in assay [4], in assay [5] and in assay [6] was > 100 µM (inactive) in each case. The GI50 in assay [7], in [8], in [9], in assay [10], in assay [11] and in assay [12] was > 100 µM (inactive) each time. The GI50 in [13], in assay [14], in assay [15], in assay [16], in [17] and in [18] was > 100 µM (inactive) throughout. In addition, the GI50 in [19] and in assay [20] was > 100 µM (inactive) throughout.
Consider `O=C1N/C(=N\N=C\c2ccccc2)C(c2ccccc2)O1` (stereo not given), for which the GI50 in assay [1] was > 100 µM (inactive); in assay [2], 17.1 µM (inactive); in assay [3] it was 79.8 µM (inactive); in [4] it was 25.5 µM (inactive); in [5], 61.8 µM (inactive); in assay [6], > 100 µM (inactive). Further, the GI50 in [7] was 35.8 µM (inactive); in assay [8], 65.6 µM (inactive); in assay [9], < 0.01 µM (active); in assay [10], > 100 µM (inactive); in [11] it was 40.9 µM (inactive); in assay [12] it was 66.8 µM (inactive). Moreover, the GI50 is 38.5 µM (inactive) in assay [13]; 23.6 µM (inactive) in assay [14]; > 100 µM (inactive) in assay [15]; > 100 µM (inactive) in [16]; 75.7 µM (inactive) in assay [17]; 15.9 µM (inactive) in assay [18]. Besides, the GI50 in assay [19] is 42.5 µM (inactive); in [20], 58.9 µM (inactive).
As for `C/C(=N\NC(=S)Nc1ccc(Cl)cc1)c1nc2cccnc2[nH]1`, the GI50 in assay [1] was 3.44 µM (inactive); in [2], 1.3 µM (inactive); in assay [3], 3.37 µM (inactive); in assay [4], 0.687 µM (active); in [5], 1.39 µM (inactive); in [6], 3.35 µM (inactive). For the same molecule, the GI50 is 3.33 µM (inactive) in [7]; 1.52 µM (inactive) in [8]; 4.91 µM (inactive) in assay [9]; 0.938 µM (active) in assay [10]; 4.07 µM (inactive) in assay [11]; 1.67 µM (inactive) in assay [12]. Moreover, the GI50 is 5.64 µM (inactive) in assay [13]; 0.92 µM (active) in [14]; 1.51 µM (inactive) in assay [15]; 5.13 µM (inactive) in assay [16]; 1.87 µM (inactive) in [17]; 0.713 µM (active) in assay [18]. Moreover, the GI50 is 2.15 µM (inactive) in [19] and 0.773 µM (active) in assay [20].
Take `O=C(O)C1C2c3ccccc3C(c3ccccc32)C1C(=O)NCC1CC1` (stereo not given): the GI50 in assay [1] was 51.2 µM (inactive); in assay [2], 13.5 µM (inactive); in assay [3], 56.8 µM (inactive); in [4], 29.9 µM (inactive); in assay [5], 53.7 µM (inactive); in assay [6], > 100 µM (inactive). Also, the GI50 in assay [7] is 45.3 µM (inactive); in assay [8] it was 68.2 µM (inactive); in [9] it was 84.5 µM (inactive); in assay [10], > 100 µM (inactive); in [11], 54.5 µM (inactive); in [12], 66.8 µM (inactive). Also, the GI50 in assay [13] is 79.1 µM (inactive); in assay [14], 45 µM (inactive); in assay [15], > 100 µM (inactive); in assay [16], 48.2 µM (inactive); in assay [17], 38.5 µM (inactive); in assay [18], 71.4 µM (inactive). Besides, the GI50 in [19] was 46.2 µM (inactive); in assay [20] it was 47 µM (inactive).
Turning to `O=C(c1ccccc1)C(Nc1ccc2ccccc2c1)c1ccccc1` (stereo not given), the GI50 in [1] was 4.85 µM (inactive); in assay [2], 20.7 µM (inactive); in [3], 11.3 µM (inactive); in assay [4] it was 8.41 µM (inactive); in [5], 17.6 µM (inactive); in assay [6] it was 30.2 µM (inactive). For the same molecule, the GI50 in assay [7] was 7.36 µM (inactive); in [8], 36.6 µM (inactive); in assay [9] it was 33.5 µM (inactive); in [10] it was 54.2 µM (inactive); in assay [11], 17.6 µM (inactive); in assay [12] it was 16.9 µM (inactive). Also, the GI50 in assay [13] was 38.1 µM (inactive); in assay [14], 7.89 µM (inactive); in assay [15], 49.7 µM (inactive); in assay [16], 7.05 µM (inactive); in assay [17], 18.2 µM (inactive); in assay [18], > 65 µM (inactive). The GI50 in assay [19] is 24.7 µM (inactive); in assay [20] it was 21.9 µM (inactive).
`COc1ccc(OC)c2c1C[C@@H]1C(C#N)N3[C@H](Cc4c(OC)ccc(OC)c4[C@@H]3C)C(=O)N1[C@H]2C` (stereo not given in full): the GI50 is 3.33 µM (inactive) in assay [1]; 3.61 µM (inactive) in assay [2]; 3.11 µM (inactive) in [3]; 2.43 µM (inactive) in assay [4]; 3.18 µM (inactive) in assay [5]; 2.87 µM (inactive) in assay [6]. For the same molecule, the GI50 in [7] was 2.27 µM (inactive); in [8], 22.5 µM (inactive); in assay [9], 1.08 µM (active); in assay [10], 2.5 µM (inactive); in assay [11], 1.84 µM (inactive); in assay [12] it was 1.75 µM (inactive). The GI50 in assay [13] was 3.23 µM (inactive); in assay [14], 2.15 µM (inactive); in assay [15] it was 3.03 µM (inactive); in assay [16] it was 4.33 µM (inactive); in [17], 2.36 µM (inactive); in assay [18], 2.25 µM (inactive). The GI50 in assay [19] is 14.9 µM (inactive); in assay [20] it was 2.26 µM (inactive).
For `O=C(CCCNc1nc(-c2ccccc2)cs1)c1cccs1`, the GI50 in assay [1], in assay [2], in assay [3], in assay [4], in assay [5] and in [6] was > 100 µM (inactive) in each case. The GI50 in assay [7], in assay [8], in assay [9], in assay [10], in assay [11] and in assay [12] was > 100 µM (inactive) in each case. In addition, the GI50 in assay [13], in assay [14], in assay [15], in assay [16], in [17] and in [18] was > 100 µM (inactive) each time. Further, the GI50 in [19] and in assay [20] was > 100 µM (inactive) throughout.
